{"source": "patent US12428370B2", "about": "“Haloallylamine dual amine oxidase inhibitors” (Syntara Limited, priority 2020, dated 2025)", "key": {"[1]": {"test_system": "mdx mice (C57BL/10ScSn-Dmdmdx/J)", "test": "Mouse model of Duchenne muscular dystrophy, Compound 1", "assay_type": "in vivo", "details": "4.8 mg/kg/day oral", "procedure": "Three-months old mdx mice (C57BL/10ScSn-Dmdmdx/J) received daily doses of Compound 1 (in a range of 1-6 mg/kg) administered in the drinking water for thirty days. Untreated, age-matched animals were used as controls. A second cohort of mice aged 10 months-old received daily doses of Compound 1 (in a range of 1-6 mg/kg) administered in the drinking water for ninety days. Untreated, age-matched animals were used as controls.\nAfter the end of each treatment period, animals were sacrificed by cervical dislocation and the skeletal muscle and the heart (minus the atria) collected, flash-frozen in isopentane pre-cooled with liquid nitrogen and stored at −80° C. 12 μm sections from the diaphragm muscle were prepared with a cryotome; multiple serial slides were prepared, containing sections from at least three different levels. The same procedure was used to prepare heart transverse sections.\nThe amount of the neutrophil and macrophage infiltration, reactive oxygen species (ROS) present and the percentage of fibrotic tissue, was determined as described in EXAMPLE 17."}, "[2]": {"test_system": "Salmonella typhimurium strains TA98, TA100 and Escherichia. coli WP2 uvrA pKM101", "test": "Miniaturized bacterial reverse mutagenicity screening assay", "assay_type": "cell-based", "details": "7.81-1000 μg/well, presence and absence of S9 metabolic activation", "procedure": "Compound 1 was tested for mutagenic potential in a miniaturized reverse mutation assay using Salmonella typhimurium strains TA98, TA100 and Escherichia. coli WP2 uvrA pKM101 in the presence and absence of a metabolic activation system. The test article was formulated in dimethylsulfoxide (DMSO) at nominal concentration of 50 mg/mL and serial dilutions were made from this stock solution. Final dosing concentrations were 1000, 500, 250, 125, 62.5, 31.3, 15.6 and 7.81 μg/well for the test article. Metabolic activation was provided using an S9 mix containing 10% v/v Aroclor-1254-induced rat liver S9 (Regensys System reagents, Moltox, Boone, NC)."}, "[3]": {"target": "T1, Adipose Tissue SSAO/VAP-1 (Mus musculus, UniProt O70423)", "T1 construct": "from tissue; host or cells: abdominal fat of C57BL/6J and mdx (C57BL/10ScSn-Dmdmdx/J) mice", "T1 sequence (O70423 1-765)": "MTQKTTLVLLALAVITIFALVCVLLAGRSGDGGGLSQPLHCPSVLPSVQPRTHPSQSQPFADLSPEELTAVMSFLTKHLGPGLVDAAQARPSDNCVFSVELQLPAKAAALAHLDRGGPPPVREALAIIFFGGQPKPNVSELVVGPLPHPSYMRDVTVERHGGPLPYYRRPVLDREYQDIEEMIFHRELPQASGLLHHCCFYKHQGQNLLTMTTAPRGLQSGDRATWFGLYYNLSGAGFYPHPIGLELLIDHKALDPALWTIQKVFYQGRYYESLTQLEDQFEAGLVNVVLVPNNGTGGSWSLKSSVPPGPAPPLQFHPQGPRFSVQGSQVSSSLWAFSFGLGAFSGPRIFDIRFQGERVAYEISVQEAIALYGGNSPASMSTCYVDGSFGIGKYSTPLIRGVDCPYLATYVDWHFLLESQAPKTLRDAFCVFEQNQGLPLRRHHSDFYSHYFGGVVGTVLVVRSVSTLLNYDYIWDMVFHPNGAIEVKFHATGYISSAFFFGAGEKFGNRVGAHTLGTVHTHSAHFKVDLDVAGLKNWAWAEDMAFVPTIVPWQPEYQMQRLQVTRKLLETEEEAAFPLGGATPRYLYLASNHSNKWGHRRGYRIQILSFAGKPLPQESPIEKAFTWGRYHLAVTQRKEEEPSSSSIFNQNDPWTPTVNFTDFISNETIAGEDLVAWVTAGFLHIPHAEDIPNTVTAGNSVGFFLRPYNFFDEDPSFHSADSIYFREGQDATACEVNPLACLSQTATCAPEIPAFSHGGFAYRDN", "test": "Mouse adipose tissue SSAO/VAP-1 activity after oral administration", "assay_type": "in vivo", "details": "for SSAO/VAP-1 activity in adipose tissue: C57BL/6J mice, single oral dose, FIG. 8", "procedure": "Mice were orally administered the compound under study and sacrificed at various time points and abdominal fat, muscle and heart tissue collected.\nSSAO/VAP-1 activity in the adipose tissue was determined as described in EXAMPLE 13.\nActivity of the treated samples was analyzed using the fluorometric method described in EXAMPLE 9 for SSAO/VAP-1 activity, EXAMPLE 10 for MAO-B and EXAMPLE 11 for MAO-A activity (FIG. 8 and FIG. 9)."}}, "data": [{"compound": "N#Cc1ccc(OC/C(=C/F)CN)cc1", "note": "[Compound 1, (E)-4-((2-(aminomethyl)-3-fluoroallyl)oxy) benzonitrile]", "values": [{"measurement": "cardiac fibrosis (picrosirius red staining in the heart muscle)", "setting": "[1]; ninety days, 10 months-old mdx mice, p<0.0001, FIG. 13", "result": "significantly reduces"}, {"measurement": "neutrophil influx in the diaphragm muscle", "setting": "[1]; thirty days, 3 months-old mdx mice, p<0.0001, FIG. 12A", "result": "significantly reduces"}, {"measurement": "macrophage influx in the diaphragm muscle", "setting": "[1]; thirty days, 3 months-old mdx mice, p<0.0001, FIG. 12B", "result": "significantly reduces"}, {"measurement": "reactive oxygen species in the diaphragm muscle", "setting": "[1]; thirty days, 3 months-old mdx mice, p<0.0001, FIG. 12C", "result": "significantly reduces"}, {"measurement": "fibrosis (picrosirius red staining) in the diaphragm muscle", "setting": "[1]; thirty days, 3 months-old mdx mice, p<0.0001, FIG. 12D", "result": "significantly reduces"}, {"measurement": "mutagenic potential", "setting": "[2]", "result": "did not induce a response indicative of mutagenic potential"}, {"measurement": "SSAO/VAP-1 activity in adipose tissue", "setting": "[3]; 24-hour time point", "result": "inhibition of the enzyme activity is still evident"}, {"measurement": "SSAO/VAP-1 activity in adipose tissue", "setting": "[3]; various doses, 4 hours after administration", "result": "dose-related reduction"}, {"measurement": "adipose tissue SSAO/VAP-1 activity", "setting": "[3]; mdx mice (C57BL/10ScSn-Dmdmdx/J), oral, FIG. 10", "result": "completely inhibits"}]}]}
